Results as given in the supplement of paper PMC11208160.

Test: recombinant barcode read abundance after kanamycin selection (control-corrected) (log10(CPM+1)); higher = more efficient recombination; sequences stand for … in AGTGCAGAGAAAATCGGCCAGTTTTCTCTGCCTGCAGTCCGCATGCCGT…AGATTTATGCAGCGGACTGCCTTTCTCCCAAAGTGATAAACCGGACAGTATCATGGACCGGTTTTCCCGGTAATCCGTATTTGCAAGGTTGGTTTCACT; site = the 11-nt target
Procedure, shortened: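 IS621 bridge RNA target-binding loops were paired with targets in a pooled library tested in E. coli. After co-electroporation with a donor plasmid, cells were plated in two replicates on chloramphenicol/ampicillin LB agar (control) and on chloramphenicol/ampicillin/kanamycin carrying 0.1 mM IPTG. Barcodes at recombinant junctions were counted as counts per million, averaged and control-corrected to give recombination efficiency. Values are log10(CPM+1).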
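Also: IS621 recombinase and bridge RNA in Escherichia coli cells.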

| Sequence | recombinant barcode read abundance (log10) |
| --- | --- |
| TAGCCTACTTGGGTTCTAACCTGTTGCGT (site TAGCCTACTCC) | 0.0265 |
| TAGCCTACTTGGGTTCTAACCTGTTGCGT (site TAGCCTACTGC) | 0.0357 |
| TAGCCTACTTGGGTTCTAACCTGTTGCGT (site TAGCCTACTTC) | 0 |
| TAGCCTTCTTGGGTTCTAACCTGTTGCAG (site TAGCCTTCTCT) | 1.14 |
| TAGCCTTCTTGGGTTCTAACCTGTTGCAG (site TAGGCGTCTCT) | 0.0752 |
| TAGCGGACTTGGGTTCTAACCTGTTGCCT (site TAGCAGACTAG) | 0.106 |
| TAGCGGACTTGGGTTCTAACCTGTTGCCT (site TAGCCGACTAG) | 0 |
| TAGCGGACTTGGGTTCTAACCTGTTGCCT (site TAGCGGACTAG) | 1.28 |
| TAGCGGACTTGGGTTCTAACCTGTTGCCT (site TAGCTGACTAG) | 0.0737 |
| TAGCGTCCTTGGGTTCTAACCTGTTGCAC (site TAGCGTCCTGT) | 1.11 |
| TAGCGTCCTTGGGTTCTAACCTGTTGCAC (site TCGCGTCCTTT) | 0.157 |
| TAGCTCCCTTGGGTTCTAACCTGTTGCCA (site TAGCTCCCTAG) | 0.676 |
| TAGCTCCCTTGGGTTCTAACCTGTTGCCA (site TAGCTCCCTCG) | 0.0851 |
| TAGCTCCCTTGGGTTCTAACCTGTTGCCA (site TAGCTCCCTGG) | 0.0734 |
| TAGCTCCCTTGGGTTCTAACCTGTTGCCA (site TAGCTCCCTTG) | 0.662 |
| TAGCTTACTTGGGTTCTAACCTGTTGCCG (site TAACTTACTAG) | 0.114 |
| TAGCTTACTTGGGTTCTAACCTGTTGCCG (site TAGCTTACTCG) | 0.523 |
| TAGGATACTTGGGTTCTAACCTGTTGCAA (site TAGGATACTAT) | 0.0732 |
| TAGGATACTTGGGTTCTAACCTGTTGCAA (site TAGGATACTCT) | 0.401 |
| TAGGATACTTGGGTTCTAACCTGTTGCAA (site TAGGATACTGT) | 0.0992 |
| TAGGATACTTGGGTTCTAACCTGTTGCAA (site TAGGATACTTT) | 1.98 |
| TAGGATTCTTGGGTTCTAACCTGTTGCGC (site ACCATACCTAT) | 0.114 |
| TAGGATTCTTGGGTTCTAACCTGTTGCGC (site TAGGATTCTGC) | 2.55 |
| TAGGATTCTTGGGTTCTAACCTGTTGCGT (site TAGGATGCTAC) | 0.144 |
| TAGGATTCTTGGGTTCTAACCTGTTGCGT (site TAGGATTCTAC) | 2.61 |
| TAGGCATCTTGGGTTCTAACCTGTTGCTC (site TAGACATCTGA) | 0.206 |

| Sequence | recombinant barcode read abundance (log10) |
| --- | --- |
| TAGGCATCTTGGGTTCTAACCTGTTGCTC (site TAGCCATCTGA) | 0.36 |
| TAGGCATCTTGGGTTCTAACCTGTTGCTC (site TAGGCATCTGA) | 0.95 |
| TAGGCATCTTGGGTTCTAACCTGTTGCTC (site TAGTCATCTGA) | 0.115 |
| TAGGCCACTTGGGTTCTAACCTGTTGCTT (site TAGGCCACTAA) | 1.61 |
| TAGGCCACTTGGGTTCTAACCTGTTGCTT (site TAGGCCACTAC) | 1.17 |
| TAGGCCACTTGGGTTCTAACCTGTTGCTT (site TAGGCCACTAG) | 0.36 |
| TAGGCCACTTGGGTTCTAACCTGTTGCTT (site TAGGCCACTAT) | 0.539 |
| TAGGCGACTTGGGTTCTAACCTGTTGCCA (site ACCTTAGCTAA) | 0.119 |
| TAGGCGACTTGGGTTCTAACCTGTTGCCA (site TAGGCGACTTG) | 0.186 |
| TAGGCTACTTGGGTTCTAACCTGTTGCAG (site TAGGCTACTAT) | 0.206 |
| TAGGCTACTTGGGTTCTAACCTGTTGCAG (site TAGGCTACTCT) | 1.97 |
| TAGGCTACTTGGGTTCTAACCTGTTGCAG (site TAGGCTACTGT) | 0.0351 |
| TAGGCTACTTGGGTTCTAACCTGTTGCAG (site TAGGCTACTTT) | 0.216 |
| TAGGCTACTTGGGTTCTAACCTGTTGCAT (site TAGGCTACTAT) | 1.06 |
| TAGGCTACTTGGGTTCTAACCTGTTGCAT (site TAGGCTACTCT) | 0.301 |
| TAGGCTACTTGGGTTCTAACCTGTTGCAT (site TAGGCTACTGT) | 0.132 |
| TAGGCTACTTGGGTTCTAACCTGTTGCAT (site TAGGCTACTTT) | 0.00693 |
| TAGGGAGCTTGGGTTCTAACCTGTTGCAT (site TAGAGAGCTCT) | 0.0779 |
| TAGGGAGCTTGGGTTCTAACCTGTTGCAT (site TAGGGAGCTAT) | 2.8 |
| TAGGGCACTTGGGTTCTAACCTGTTGCCG (site TAGGGCACTCA) | 0.119 |
| TAGGGCACTTGGGTTCTAACCTGTTGCCG (site TAGGGCACTCG) | 1.58 |
| TAGGGCCCTTGGGTTCTAACCTGTTGCCT (site AAGGGCCCTAG) | 0.111 |
| TAGGGCCCTTGGGTTCTAACCTGTTGCCT (site CAGGGCCCTAG) | 0.0445 |
| TAGGGCCCTTGGGTTCTAACCTGTTGCCT (site GAGGGCCCTAG) | 0.0503 |
| TAGGGCCCTTGGGTTCTAACCTGTTGCCT (site TAGGGCCCTAG) | 1.15 |
| TAGGGTACTTGGGTTCTAACCTGTTGCGC (site ACAACCTCTCG) | 0.0219 |

| Sequence | recombinant barcode read abundance (log10) |
| --- | --- |
| TAGGGTACTTGGGTTCTAACCTGTTGCGC (site TAGGGTACTGC) | 2.85 |
| TAGGTACCTTGGGTTCTAACCTGTTGCAT (site TAGGTACCTAT) | 1.98 |
| TAGGTACCTTGGGTTCTAACCTGTTGCAT (site TAGGTCCCTAT) | 0.223 |
| TAGGTACCTTGGGTTCTAACCTGTTGCAT (site TAGGTGCCTAT) | 0.0753 |
| TAGGTACCTTGGGTTCTAACCTGTTGCAT (site TAGGTTCCTAT) | 0.0968 |
| TAGGTCGCTTGGGTTCTAACCTGTTGCAT (site TAGATCGCTCT) | 0.171 |
| TAGGTCGCTTGGGTTCTAACCTGTTGCAT (site TAGGTCGCTAT) | 2.48 |
| TAGGTGACTTGGGTTCTAACCTGTTGCGG (site TAGGTGACTCC) | 2.13 |
| TAGGTGACTTGGGTTCTAACCTGTTGCGG (site TAGGTGCCTCC) | 0.285 |
| TAGGTGGCTTGGGTTCTAACCTGTTGCCT (site TAGGTGGCTAG) | 0.463 |
| TAGGTGGCTTGGGTTCTAACCTGTTGCCT (site TGGGCGGCTAG) | 0.105 |
| TAGGTGTCTTGGGTTCTAACCTGTTGCCT (site TAAGTGTCTAG) | 1.04 |
| TAGGTGTCTTGGGTTCTAACCTGTTGCCT (site TACGTGTCTAG) | 0.181 |
| TAGGTGTCTTGGGTTCTAACCTGTTGCCT (site TAGGTGTCTAG) | 1.33 |
| TAGGTGTCTTGGGTTCTAACCTGTTGCCT (site TATGTGTCTAG) | 0.0655 |
| TAGGTTCCTTGGGTTCTAACCTGTTGCCT (site TAGGTTCCTAG) | 0.348 |
| TAGGTTCCTTGGGTTCTAACCTGTTGCCT (site TCGGTTCCTAG) | 0.161 |
| TAGTACCCTTGGGTTCTAACCTGTTGCAC (site TAGTACCCTAT) | 0.169 |
| TAGTACCCTTGGGTTCTAACCTGTTGCAC (site TAGTACCCTCT) | 0.298 |
| TAGTACCCTTGGGTTCTAACCTGTTGCAC (site TAGTACCCTGT) | 1.28 |
| TAGTACCCTTGGGTTCTAACCTGTTGCAC (site TAGTACCCTTT) | 0.0304 |
| TAGTACCCTTGGGTTCTAACCTGTTGCAG (site TAGTACCCTAT) | 0.0395 |
| TAGTACCCTTGGGTTCTAACCTGTTGCAG (site TAGTACCCTCT) | 1.23 |
| TAGTACCCTTGGGTTCTAACCTGTTGCAG (site TAGTACCCTGT) | 0.152 |
| TAGTACCCTTGGGTTCTAACCTGTTGCAG (site TAGTACCCTTT) | 0.0625 |
